Measurements: ChEMBL document CHEMBL5143702, “Discovery of novel bis-evodiamine derivatives with potent antitumor activity” (Bioorg Med Chem, 2022)
Values after ≈ are worked out from the molar mass of the structure shown. Blank lines part the entries; values can stand above or below the compound they belong to. Active and inactive are the calls of the source. No cut-off for these calls is given here.

Assays:
[1] = system: HCT-116; assay: Inhibition of cell proliferation of human HCT-116 cells at 0.01 to 10 uM incubated for 48 hrs by RTCA assay; assay type: functional; conditions: dose 0.01-10 µM
[2] = system: HCT-116; assay: Inhibition of cell colony formation of human HCT-116 cells at 0.025 to 0.5 uM by clonogenicity assay; assay type: functional, cell-based; conditions: dose 0.025-0.5 µM
[3] = system: HCT-116; assay: Inhibition of cell migration of human HCT-116 cells at 0.01 to 0.15 uM incubated for 24 hrs by wound healing assay; assay type: functional, cell-based; conditions: dose 0.01-0.15 µM
[4] = system: HCT-116; assay: Induction of apoptosis in human HCT-116 cells at 0.05 to 0.25 uM incubated for 48 hrs by Annexin V/PI staining based flow cytometry; assay type: functional, cell-based; conditions: dose 0.05-0.25 µM, DDE = dose-dependent effect
[5] = system: HCT-116; assay: Induction of apoptosis in human HCT-116 cells assessed as increase in Bax protein expression at 0.05 to 1.5 uM incubated for 24 hrs by Western blot analysis; assay type: functional, cell-based; conditions: dose 0.05-1.5 µM
[6] = system: HCT-116; assay: Induction of apoptosis in human HCT-116 cells assessed as decrease in Bcl-2 protein expression at 0.05 to 1.5 uM incubated for 24 hrs by Western blot analysis; assay type: functional, cell-based; conditions: dose 0.05-1.5 µM
[7] = system: HCT-116; assay: Induction of apoptosis in human HCT-116 cells assessed as increase in p53 protein expression at 0.05 to 1.5 uM incubated for 24 hrs by Western blot analysis; assay type: functional, cell-based; conditions: dose 0.05-1.5 µM
[8] = system: HCT-116; assay: Induction of apoptosis in human HCT-116 cells assessed as increase in cytochrome C protein expression at 0.05 to 1.5 uM incubated for 24 hrs by Western blot analysis; assay type: functional, cell-based; conditions: dose 0.05-1.5 µM
[9] = system: HCT-116; assay: Induction of apoptosis in human HCT-116 cells assessed as reduction in cytochrome C protein expression at 1.5 uM incubated for 24 hrs by Western blot analysis; assay type: functional, cell-based
[10] = system: HCT-116; assay: Induction of apoptosis in human HCT-116 cells assessed as reduction in p53 protein expression at 1.5 uM incubated for 24 hrs by Western blot analysis; assay type: functional, cell-based
[11] = system: HCT-116; assay: Induction of cell cycle arrest in human HCT-116 cells assessed as increase in Cyclin B1 expression at 0.05 to 1.5 uM incubated for 24 hrs by Western blot analysis; assay type: functional, cell-based; conditions: dose 0.05-1.5 µM
[12] = system: HCT-116; assay: Induction of cell cycle arrest in human HCT-116 cells assessed as reduction in Cdc25c expression at 0.05 to 1.5 uM incubated for 24 hrs by Western blot analysis; assay type: functional, cell-based; conditions: dose 0.05-1.5 µM
[13] = system: HCT-116; assay: In-vitro antitumor activity against human HCT-116 cells incubated for 72 hrs by CCK8 assay; assay type: functional, cell-based; conditions: HCT-116, 72 h
[14] = system: MCF7; assay: In-vitro antitumor activity against human MCF7 cells incubated for 72 hrs by CCK8 assay; assay type: functional, cell-based; conditions: MCF7, 72 h
[15] = system: A549; assay: In-vitro antitumor activity against human A549 cells incubated for 72 hrs by CCK8 assay; assay type: functional, cell-based; conditions: A549, 72 h
[16] = In-vitro cytotoxic activity against human HUVEC cells incubated for 72 hrs by CCK8 assay; assay type: toxicity, cell-based
[17] = system: HCT-116; assay: Induction of apoptosis in human HCT-116 cells at 0.05 uM incubated for 48 hrs by Annexin V/PI staining based flow cytometry (reference value: 3.86%); assay type: functional
[18] = system: HCT-116; assay: Induction of apoptosis in human HCT-116 cells at 0.1 uM incubated for 48 hrs by Annexin V/PI staining based flow cytometry (reference value: 3.86%); assay type: functional
[19] = system: HCT-116; assay: Induction of apoptosis in human HCT-116 cells at 0.15 uM incubated for 48 hrs by Annexin V/PI staining based flow cytometry (reference value: 3.86%); assay type: functional
[20] = system: HCT-116; assay: Induction of apoptosis in human HCT-116 cells at 0.25 uM incubated for 48 hrs by Annexin V/PI staining based flow cytometry (reference value: 3.86%); assay type: functional
[21] = system: HCT-116; assay: Induction of cell cycle arrest in human HCT-116 cells assessed as accumulation at G1 phase at 0.01 uM incubated for 48 hrs by flow cytometry (reference value: 33.16%); assay type: functional
[22] = system: HCT-116; assay: Induction of cell cycle arrest in human HCT-116 cells assessed as accumulation at G1 phase at 0.05 uM incubated for 48 hrs by flow cytometry (reference value: 33.16%); assay type: functional
[23] = system: HCT-116; assay: Induction of cell cycle arrest in human HCT-116 cells assessed as accumulation at G1 phase at 0.25 uM incubated for 48 hrs by flow cytometry (reference value: 33.16%); assay type: functional
[24] = system: HCT-116; assay: Induction of cell cycle arrest in human HCT-116 cells assessed as accumulation at G2/M phase at 0.01 uM incubated for 48 hrs by flow cytometry (reference value: 32.63%); assay type: functional
[25] = system: HCT-116; assay: Induction of cell cycle arrest in human HCT-116 cells assessed as accumulation at G2/M phase at 0.05 uM incubated for 48 hrs by flow cytometry (reference value: 32.63%); assay type: functional
[26] = system: HCT-116; assay: Induction of cell cycle arrest in human HCT-116 cells assessed as accumulation at G2/M phase at 0.25 uM incubated for 48 hrs by flow cytometry (reference value: 32.63%); assay type: functional
[27] = system: HCT-116; assay: Induction of cell cycle arrest in human HCT-116 cells assessed as accumulation at S phase at 0.01 uM incubated for 48 hrs by flow cytometry (reference value: 34.21%); assay type: functional
[28] = system: HCT-116; assay: Induction of cell cycle arrest in human HCT-116 cells assessed as accumulation at S phase at 0.05 uM incubated for 48 hrs by flow cytometry (reference value: 34.21%); assay type: functional
[29] = system: HCT-116; assay: Induction of cell cycle arrest in human HCT-116 cells assessed as accumulation at S phase at 0.25 uM incubated for 48 hrs by flow cytometry (reference value: 34.21%); assay type: functional
[30] = system: HCT-116; assay: Inhibition of cell migration of human HCT-116 cells at 0.25 uM incubated for 24 hrs by wound healing assay; assay type: functional, cell-based

MIC [1]: 0.01 µM (≈ 7.71 ng/mL)
IC50 [13]: 32 nM
IC50 [14]: 200 nM
IC50 [15]: 730 nM
Compound: CN1c2ccc(F)cc2C(=O)N2CCc3c([nH]c4ccc(OC(=O)CCCC(=O)Oc5ccc6[nH]c7c(c6c5)CCN5C(=O)c6cc(F)ccc6N(C)C75)cc34)C21 (configuration not stated)
inhibition ([1]; DDE = dose-dependent effect): Dde
inhibition [2]: Active
inhibition [3]: Active
Activity [4]: Dde
Activity [5]: Active
Activity [6]: Active
Activity [7]: Active
Activity [8]: Active
Activity [9]: Active
Activity [10]: Active
Activity [11]: Active
Activity [12]: Active
IC50 at 72 h [16]: 580 nM
Activity [17]: 47.78%
Activity [18]: 54.32%
Activity [19]: 58.73%
Activity [20]: 75.11%
Activity [21]: 42.61%
Activity [22]: 40.2%
Activity [23]: 34.77%
Activity [24]: 30.43%
Activity [25]: 59.8%
Activity [26]: 65.23%
Activity [27]: 26.96%
Activity [28]: 0%
Activity [29]: 0%

IC50 [13]: 170 nM
IC50 [14]: 410 nM
IC50 [15]: 610 nM
Compound: CN1c2ccc(F)cc2C(=O)N2CCc3c([nH]c4ccc(OC(=O)CCSSCCC(=O)Oc5ccc6[nH]c7c(c6c5)CCN5C(=O)c6cc(F)ccc6N(C)C75)cc34)C21 (configuration not stated)
IC50 at 72 h [16]: 130 nM

IC50 [13]: 32 nM
IC50 [14]: 890 nM
IC50 [15]: 680 nM
Compound: CN1c2ccc(F)cc2C(=O)N2CCc3c([nH]c4ccc(OC(=O)CCC(=O)Oc5ccc6[nH]c7c(c6c5)CCN5C(=O)c6cc(F)ccc6N(C)C75)cc34)C21 (configuration not stated)
IC50 at 72 h [16]: 210 nM

Compound: CC[C@@]1(O)C(=O)OCc2c1cc1n(c2=O)Cc2cc3ccccc3nc2-1 [CAMPTOTHECIN]
IC50 [13]: 40 nM
IC50 [14]: 21 nM
IC50 [15]: 74 nM
IC50 at 72 h [16]: 12 nM

IC50 [13]: 73 nM
IC50 [14]: 44 nM
IC50 [15]: 460 nM
Compound: CN1c2ccc(F)cc2C(=O)N2CCc3c([nH]c4ccc(O)cc34)C21 (configuration not stated)
inhibition [30]: Active
IC50 at 72 h [16]: 260 nM
